Values after ≈ are worked out from the molar mass of the structure shown.
Experiments:
[1] = biological target: Xanthine dehydrogenase/oxidase (Homo sapiens, UniProt P47989)
[2] = Intrinsic clearance in human liver microsomes; type: ADME; conditions: read-out: CLH
[3] = Solubility of the compound in phosphate buffer at pH 7.4
[4] = Apparent permeability across apical side to basolateral side in human Caco2 cells; conditions: Caco-2
[5] = Apparent permeability across basolateral side to apical side in human Caco2 cells; conditions: Caco-2
[6] = Cmax in Han Wistar rat at 6 umol/kg, po; type: ADME, organism-based; parameters: dose 6 umol/kg, route oral; conditions: in vivo
[7] = Half life in Han Wistar rat at 1 umol/kg, iv; type: ADME, organism-based; conditions: in vivo
[8] = Clearance in Han Wistar rat at 1 umol/kg, iv; type: ADME, organism-based; conditions: in vivo
[9] = tested on: Rattus norvegicus; experiment: Volume of distribution at steady state in Han Wistar rat at […]; type: ADME, organism-based; conditions: in vivo
[10] = Oral bioavailability in Han Wistar rat at 6 umol/kg; type: ADME, organism-based; conditions: in vivo
[11] = Plasma concentration in potassium oxonate-induced hyperuricemic Sprague-Dawley rat model at 10 mg/kg, po measured after 2 hrs; type: ADME, organism-based; parameters: dose 10 mg/kg, route oral
[12] = tested on: Rattus norvegicus; experiment: Antihyperuricemic activity in potassium oxonate-induced hyperuricemic Sprague-Dawley rat model assessed as decrease of uric acid level in serum at 10 mg/kg, po measured after 1 hr relative to vehicle-treated control; type: functional; parameters: scale not given: the % may be the effect or the level left
[13] = tested on: Rattus norvegicus; experiment: Antihyperuricemic activity in potassium oxonate-induced hyperuricemic Sprague-Dawley rat model assessed as decrease of uric acid level in serum at 10 mg/kg, po measured after 2 hrs relative to vehicle-treated control; type: functional; parameters: scale not given: the % may be the effect or the level left
[14] = biological target: Xanthine dehydrogenase/oxidase (Rattus norvegicus, UniProt P22985); experiment: Inhibition of rat xanthine oxidase
Sequence of Xanthine dehydrogenase/oxidase (Rattus norvegicus, UniProt P22985) (P22985 whole entry): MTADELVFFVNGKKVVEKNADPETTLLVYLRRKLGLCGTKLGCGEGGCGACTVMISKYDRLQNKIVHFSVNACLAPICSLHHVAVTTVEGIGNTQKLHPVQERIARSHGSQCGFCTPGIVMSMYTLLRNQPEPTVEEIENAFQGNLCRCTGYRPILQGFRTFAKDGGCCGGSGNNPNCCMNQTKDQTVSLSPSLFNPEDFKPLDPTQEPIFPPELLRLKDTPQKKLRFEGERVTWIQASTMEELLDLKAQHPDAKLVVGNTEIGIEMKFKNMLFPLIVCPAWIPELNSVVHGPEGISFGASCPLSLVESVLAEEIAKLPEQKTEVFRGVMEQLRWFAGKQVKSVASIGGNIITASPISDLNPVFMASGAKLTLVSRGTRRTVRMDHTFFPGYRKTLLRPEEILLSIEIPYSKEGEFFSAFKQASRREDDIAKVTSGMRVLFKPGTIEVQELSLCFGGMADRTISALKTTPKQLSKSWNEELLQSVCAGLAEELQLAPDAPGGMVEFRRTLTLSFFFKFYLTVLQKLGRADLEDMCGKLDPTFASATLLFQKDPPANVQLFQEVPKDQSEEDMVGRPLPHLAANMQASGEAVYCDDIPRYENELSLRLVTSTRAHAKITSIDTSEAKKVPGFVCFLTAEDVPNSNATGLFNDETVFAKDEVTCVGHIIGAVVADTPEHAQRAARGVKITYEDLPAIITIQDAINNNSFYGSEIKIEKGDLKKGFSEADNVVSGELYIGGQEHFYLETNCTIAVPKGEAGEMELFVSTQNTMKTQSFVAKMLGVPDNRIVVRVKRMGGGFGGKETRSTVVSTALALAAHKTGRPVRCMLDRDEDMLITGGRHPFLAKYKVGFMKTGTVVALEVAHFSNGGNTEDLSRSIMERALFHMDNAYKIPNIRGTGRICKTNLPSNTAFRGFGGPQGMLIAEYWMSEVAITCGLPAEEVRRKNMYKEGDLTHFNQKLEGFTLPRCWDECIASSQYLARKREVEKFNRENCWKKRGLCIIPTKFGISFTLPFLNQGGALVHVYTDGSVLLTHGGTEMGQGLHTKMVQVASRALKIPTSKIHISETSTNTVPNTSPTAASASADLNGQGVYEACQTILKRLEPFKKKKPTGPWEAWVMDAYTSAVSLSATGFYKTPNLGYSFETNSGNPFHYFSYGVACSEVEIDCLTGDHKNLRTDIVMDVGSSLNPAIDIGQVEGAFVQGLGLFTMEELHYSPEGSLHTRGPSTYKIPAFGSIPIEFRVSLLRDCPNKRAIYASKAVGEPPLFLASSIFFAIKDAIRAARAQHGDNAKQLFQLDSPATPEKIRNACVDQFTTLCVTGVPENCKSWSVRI

[15] = tested on: Hepatocyte; experiment: Intrinsic clearance in human hepatocytes assessed per million cells; type: ADME, cell-based
[16] = biological target: T1, Xanthine dehydrogenase/oxidase (Bos taurus, UniProt P80457); experiment: Inhibition of bovine xanthine oxidase
T1 sequence (P80457 whole entry): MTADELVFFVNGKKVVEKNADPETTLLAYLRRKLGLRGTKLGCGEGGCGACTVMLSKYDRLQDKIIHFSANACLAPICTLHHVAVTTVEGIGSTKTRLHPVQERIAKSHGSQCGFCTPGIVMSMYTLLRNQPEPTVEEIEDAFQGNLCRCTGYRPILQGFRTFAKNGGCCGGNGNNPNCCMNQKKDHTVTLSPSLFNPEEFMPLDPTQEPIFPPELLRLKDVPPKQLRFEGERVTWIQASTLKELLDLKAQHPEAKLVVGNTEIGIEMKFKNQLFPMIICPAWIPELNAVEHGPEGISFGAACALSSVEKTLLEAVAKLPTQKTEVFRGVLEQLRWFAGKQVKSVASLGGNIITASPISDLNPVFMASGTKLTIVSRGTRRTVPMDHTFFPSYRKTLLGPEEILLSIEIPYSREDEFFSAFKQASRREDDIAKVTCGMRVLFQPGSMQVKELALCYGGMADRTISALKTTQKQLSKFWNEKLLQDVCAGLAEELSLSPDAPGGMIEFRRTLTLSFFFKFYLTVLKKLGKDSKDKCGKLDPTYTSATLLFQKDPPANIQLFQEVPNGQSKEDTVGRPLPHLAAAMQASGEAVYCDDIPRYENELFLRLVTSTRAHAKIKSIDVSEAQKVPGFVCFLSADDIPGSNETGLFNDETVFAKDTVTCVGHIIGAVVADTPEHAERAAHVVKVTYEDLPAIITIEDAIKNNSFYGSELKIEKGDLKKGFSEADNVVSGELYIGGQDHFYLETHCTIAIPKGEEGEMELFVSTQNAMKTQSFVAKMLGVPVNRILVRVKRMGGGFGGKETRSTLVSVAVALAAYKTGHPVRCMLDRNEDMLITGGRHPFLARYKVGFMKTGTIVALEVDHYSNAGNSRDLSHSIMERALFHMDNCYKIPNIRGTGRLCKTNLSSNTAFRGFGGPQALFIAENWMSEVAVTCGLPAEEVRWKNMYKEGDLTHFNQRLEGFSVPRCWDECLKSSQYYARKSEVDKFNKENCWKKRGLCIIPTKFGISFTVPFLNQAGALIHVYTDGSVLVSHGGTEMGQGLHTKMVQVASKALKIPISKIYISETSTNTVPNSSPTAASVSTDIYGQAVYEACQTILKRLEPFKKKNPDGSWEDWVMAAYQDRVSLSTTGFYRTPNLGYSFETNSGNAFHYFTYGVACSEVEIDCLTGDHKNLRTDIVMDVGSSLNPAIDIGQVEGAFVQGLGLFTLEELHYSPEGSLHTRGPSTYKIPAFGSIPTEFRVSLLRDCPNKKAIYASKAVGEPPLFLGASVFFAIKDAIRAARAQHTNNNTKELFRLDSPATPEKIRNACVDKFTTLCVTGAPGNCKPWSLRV

[17] = biological target: T1, Xanthine dehydrogenase/oxidase; experiment: Competitive inhibition of bovine xanthine oxidase
[18] = biological target: T1, Xanthine dehydrogenase/oxidase; experiment: Reversible inhibition of bovine xanthine oxidase; conditions: cattle
[19] = tested on: Plasma; experiment: Antihyperuricemic activity in potassium oxonate-induced hyperuricemic Sprague-Dawley rat model assessed as decrease of uric acid level in serum at 30 mg/kg, po measured after 2 hrs relative to vehicle-treated control; type: functional; parameters: scale not given: the % may be the effect or the level left
[20] = tested on: Rattus norvegicus; experiment: Antihyperuricemic activity in potassium oxonate-induced hyperuricemic Sprague-Dawley rat model assessed as decrease of uric acid level in serum at 30 mg/kg, po measured after 1 hr relative to vehicle-treated control; type: functional; parameters: scale not given: the % may be the effect or the level left

Sequence of Xanthine dehydrogenase/oxidase (Homo sapiens, UniProt P47989) (P47989 whole entry): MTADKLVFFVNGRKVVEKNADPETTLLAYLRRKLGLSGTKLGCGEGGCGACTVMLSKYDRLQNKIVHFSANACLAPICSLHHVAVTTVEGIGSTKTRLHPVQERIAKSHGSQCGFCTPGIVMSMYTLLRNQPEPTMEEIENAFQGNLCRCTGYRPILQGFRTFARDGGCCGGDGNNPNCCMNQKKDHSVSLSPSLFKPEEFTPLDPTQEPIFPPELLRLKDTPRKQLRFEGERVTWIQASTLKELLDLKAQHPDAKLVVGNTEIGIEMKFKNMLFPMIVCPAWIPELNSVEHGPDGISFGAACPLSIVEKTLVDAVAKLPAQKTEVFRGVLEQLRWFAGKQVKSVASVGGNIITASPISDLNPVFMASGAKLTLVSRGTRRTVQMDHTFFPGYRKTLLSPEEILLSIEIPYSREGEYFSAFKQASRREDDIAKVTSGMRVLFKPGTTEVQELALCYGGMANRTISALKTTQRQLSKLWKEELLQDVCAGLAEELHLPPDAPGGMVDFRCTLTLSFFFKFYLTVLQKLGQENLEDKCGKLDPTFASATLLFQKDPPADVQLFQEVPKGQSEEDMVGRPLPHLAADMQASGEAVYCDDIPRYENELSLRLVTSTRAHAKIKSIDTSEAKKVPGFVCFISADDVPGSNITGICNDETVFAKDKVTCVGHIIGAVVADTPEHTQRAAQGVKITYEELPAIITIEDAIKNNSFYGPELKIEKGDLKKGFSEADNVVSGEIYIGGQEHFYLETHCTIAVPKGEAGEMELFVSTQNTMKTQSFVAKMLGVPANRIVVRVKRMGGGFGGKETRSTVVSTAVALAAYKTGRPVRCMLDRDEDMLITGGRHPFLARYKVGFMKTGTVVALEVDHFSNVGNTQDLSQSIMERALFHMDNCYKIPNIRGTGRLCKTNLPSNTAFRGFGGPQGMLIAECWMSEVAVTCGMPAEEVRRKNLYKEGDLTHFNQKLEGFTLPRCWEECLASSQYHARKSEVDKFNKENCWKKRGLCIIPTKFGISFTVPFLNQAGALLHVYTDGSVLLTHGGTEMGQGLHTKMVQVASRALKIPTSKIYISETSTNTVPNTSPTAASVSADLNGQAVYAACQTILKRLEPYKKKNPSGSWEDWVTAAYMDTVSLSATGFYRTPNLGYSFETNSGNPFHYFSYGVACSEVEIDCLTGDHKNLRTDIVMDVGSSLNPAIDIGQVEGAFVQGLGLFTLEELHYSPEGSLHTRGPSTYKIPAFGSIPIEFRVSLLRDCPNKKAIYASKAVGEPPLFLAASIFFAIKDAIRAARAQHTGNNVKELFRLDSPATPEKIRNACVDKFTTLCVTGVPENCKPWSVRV

Structure (SMILES): COc1ccc(-c2cnc3nc[nH]c(=O)c3n2)cc1
- IC50 [1]: 15800 nM

Structure (SMILES): CC(C)COc1ccc(-c2cc(=O)[nH]c(N)n2)cc1
- microsomal CLint [2]: 42 µL/min/mg
- solubility [3]: 23 µM (≈ 5.96 µg/mL)

Structure (SMILES): CC(C)COc1ccc(-c2cc(=O)[nH]c(N)n2)cc1C#N
- microsomal CLint [2]: 7.9 µL/min/mg
- solubility [3]: 140 µM (≈ 39.8 µg/mL)

Structure (SMILES): N#Cc1cc(-c2nc(N)[nH]c(=O)c2Cl)ccc1OCC1CCOC1 (stereo unspecified)
- Papp A→B [4]: 0.2 ×10⁻⁶ cm/s
- microsomal CLint [2]: 3.4 µL/min/mg
- solubility [3]: 41 µM (≈ 14.2 µg/mL)
- Papp B→A [5]: 24 ×10⁻⁶ cm/s

Structure (SMILES): Cc1cc(-c2nc(N)[nH]c(=O)c2Cl)cc(C#N)c1OCC1CCOC1 (stereo unspecified)
- Papp A→B [4]: 2.1 ×10⁻⁶ cm/s
- microsomal CLint [2]: 5.3 µL/min/mg
- solubility [3]: 83 µM (≈ 29.9 µg/mL)
- Papp B→A [5]: 35 ×10⁻⁶ cm/s

Structure (SMILES): Nc1nc(-c2ccc(OCC3CCOC3)c(C(F)(F)F)c2)c(Cl)c(=O)[nH]1 (stereo unspecified)
- Papp A→B [4]: 8.4 ×10⁻⁶ cm/s
- Cmax [6]: 270 nM
- half-life [7]: 10 h
- microsomal CLint [2]: 7.5 µL/min/mg
- solubility [3]: 24 µM (≈ 9.35 µg/mL)
- Papp B→A [5]: 69 ×10⁻⁶ cm/s
- clearance [8]: 15 mL/min/kg
- Vdss [9]: 5.7 L/kg
- bioavailability [10]: 33%

Structure (SMILES): Nc1nc(-c2ccc(OCC3CCOC3)c(OC(F)(F)F)c2)c(Cl)c(=O)[nH]1 (stereo unspecified)
- concentration at 2 h [11]: 370 nM
- Papp A→B [4]: 6.4 ×10⁻⁶ cm/s
- Cmax [6]: 80 nM
- Activity [12]: 55%
- half-life [7]: 13.2 h
- microsomal CLint [2]: 18 µL/min/mg
- solubility [3]: 45 µM (≈ 18.3 µg/mL)
- Papp B→A [5]: 74 ×10⁻⁶ cm/s
- clearance [8]: 35 mL/min/kg
- Vdss [9]: 13 L/kg
- Activity [13]: 54%
- bioavailability [10]: 22%
- IC50 [14]: 7.94 nM

Structure (SMILES): Nc1nc(-c2cccc(C(F)(F)F)c2)cc(=O)[nH]1
- solubility [3]: 36 µM (≈ 9.19 µg/mL)

Structure (SMILES): Nc1nc(-c2cccc(OC(F)(F)F)c2)cc(=O)[nH]1
- microsomal CLint [2]: 3.2 µL/min/mg
- solubility [3]: 330 µM (≈ 89.5 µg/mL)

Structure (SMILES): Cc1cc(C#N)cc(-c2cc(=O)[nH]c(N)n2)c1
- microsomal CLint [2]: 1.2 µL/min/mg
- solubility [3]: 350 µM (≈ 79.2 µg/mL)

Structure (SMILES): N#Cc1cc(-c2cc(=O)[nH]c(N)n2)cc(C(F)(F)F)c1
- microsomal CLint [2]: 0.2 µL/min/mg
- solubility [3]: 430 µM (≈ 120 µg/mL)

Structure (SMILES): Nc1nc(-c2ccc(OCc3ccccc3)cc2)cc(=O)[nH]1
- solubility [3]: < 1 µM

Structure (SMILES): CC(C)(C)COc1ccc(-c2cc(=O)[nH]c(N)n2)cc1
- microsomal CLint [2]: 6.9 µL/min/mg
- solubility [3]: 3.1 µM (≈ 0.847 µg/mL)

Structure (SMILES): Nc1nc(-c2ccc(OCCCCO)cc2)cc(=O)[nH]1
- microsomal CLint [2]: 6.8 µL/min/mg
- solubility [3]: 95 µM (≈ 26.2 µg/mL)

Structure (SMILES): Nc1nc(-c2ccc(OCC3CCOC3)cc2)cc(=O)[nH]1 (stereo unspecified)
- microsomal CLint [2]: 21 µL/min/mg
- solubility [3]: 58 µM (≈ 16.7 µg/mL)

Structure (SMILES): CC(C)COc1ccc(-c2nc(N)[nH]c(=O)c2C#N)cc1C#N
- Papp A→B [4]: 0.1 ×10⁻⁶ cm/s
- Cmax [6]: 70 nM
- half-life [7]: 19 h
- microsomal CLint [2]: 4.1 µL/min/mg
- solubility [3]: 14 µM (≈ 4.33 µg/mL)
- Papp B→A [5]: 30 ×10⁻⁶ cm/s
- clearance [8]: 1.8 mL/min/kg
- Vdss [9]: 2.5 L/kg
- bioavailability [10]: 5.5%

Structure (SMILES): CC(C)COc1ccc(-c2nc(N)[nH]c(=O)c2Cl)cc1C#N
- microsomal CLint [2]: 16 µL/min/mg

Structure (SMILES): CNc1nc(-c2ccc(OCC(C)C)c(C#N)c2)c(C#N)c(=O)[nH]1
- microsomal CLint [2]: 3.6 µL/min/mg
- solubility [3]: 37 µM (≈ 12 µg/mL)

Structure (SMILES): N#Cc1cc(-c2nc(N)[nH]c(=O)c2Cl)ccc1OCCCCO
- Papp A→B [4]: 0.2 ×10⁻⁶ cm/s
- microsomal CLint [2]: 1.7 µL/min/mg
- solubility [3]: 93 µM (≈ 31.1 µg/mL)
- Papp B→A [5]: 25.6 ×10⁻⁶ cm/s

Structure (SMILES): N#Cc1cc(-c2nc(N)[nH]c(=O)c2C#N)ccc1OCC1CC1
- Papp A→B [4]: 0.1 ×10⁻⁶ cm/s
- microsomal CLint [2]: 1.7 µL/min/mg
- solubility [3]: 45 µM (≈ 13.8 µg/mL)
- Papp B→A [5]: 31 ×10⁻⁶ cm/s

Structure (SMILES): N#Cc1c(-c2ccc(OCC3CCOC3)c(OC(F)(F)F)c2)nc(N)[nH]c1=O (stereo unspecified)
- Papp A→B [4]: 0.1 ×10⁻⁶ cm/s
- microsomal CLint [2]: 21 µL/min/mg
- solubility [3]: 86 µM (≈ 34.1 µg/mL)
- Papp B→A [5]: 29 ×10⁻⁶ cm/s

Structure (SMILES): CC(C)(C)COc1ccc(-c2nc(N)[nH]c(=O)c2C#N)cc1OC(F)(F)F
- Papp A→B [4]: 0.4 ×10⁻⁶ cm/s
- microsomal CLint [2]: 36 µL/min/mg
- solubility [3]: 6 µM (≈ 2.29 µg/mL)
- Papp B→A [5]: 4.1 ×10⁻⁶ cm/s

Structure (SMILES): CC(C)COc1ccc(-c2nc(N)[nH]c(=O)c2C#N)cc1C(F)(F)F
- Papp A→B [4]: 1.7 ×10⁻⁶ cm/s
- microsomal CLint [2]: 8.5 µL/min/mg
- solubility [3]: 1.2 µM (≈ 0.423 µg/mL)
- Papp B→A [5]: 23 ×10⁻⁶ cm/s

Structure (SMILES): CC(=O)Nc1ccc(-c2cc(=O)[nH]c(N)n2)cc1
- CLH [15]: 2.7 µL/min/1e6 cells

Structure (SMILES): c1ccc(-c2nn3c(-c4cnccn4)nnc3s2)cc1
- IC50 [16]: 79.4 nM

Structure (SMILES): O=c1[nH]ccc2nc(-c3cccc(C(F)(F)F)c3)cn12
- IC50 [17]: 398 nM
- inhibition (INH) [18]: Active

Structure (SMILES): CC(=O)Nc1nc(-c2ccccc2)cc(=O)[nH]1
- IC50 [1]: > 100000 nM

Structure (SMILES): CS(=O)(=O)Nc1nc(-c2ccccc2)cc(=O)[nH]1
- IC50 [1]: > 100000 nM

Structure (SMILES): Cn1c(N)nc(-c2ccccc2)cc1=O
- IC50 [1]: > 100000 nM

Structure (SMILES): Oc1ncnc2[nH]ncc12 [ALLOPURINOL]
- Activity [19]: 94%
- Activity [20]: 87%

Structure (SMILES): Nc1nc(-c2ccccc2)c(Br)c(=O)[nH]1 [BROPIRIMINE]
- IC50 [1]: 1000 nM

Structure (SMILES): Cc1nc(-c2ccc(OCC(C)C)c(C#N)c2)sc1C(=O)O [FEBUXOSTAT]
- concentration at 2 h [11]: 8700 nM
- IC50 [1]: 1.26 nM
- Activity [12]: 78%
- Activity [13]: 75%
- IC50 [14]: 3.98 nM

From ChEMBL document CHEMBL3124800, “HTS followed by NMR based counterscreening. Discovery and optimization of pyrimidones as reversible and competitive inhibitors of xanthine oxidase” (Bioorg Med Chem Lett, 2014)
